Data: US20260132160A1, “IRON REPLACEMENT TREATMENTS” (The General Hospital Corporation, priority 2022, published 2026)
“Also recorded” adds a separate entry of the source.

How the values were obtained:
[1] = Pharmacokinetics by dynamic magnetic resonance imaging; type: in vivo; settings: mouse
Description: Fe-BBG is paramagnetic, which enables us to monitor Fe-BBG blood clearance and excretion through dynamic magnetic resonance imaging.

normal male C57BL/6 mice = assay: Serum nonheme iron parameters after i.v. injection (ferrozine assay); type: in vivo, mouse
Protocol: The in vivo efficacy of Fe-BBG as a direct-to-transferrin Fe replacement drug was preliminary evaluated in normal male C57BL/6mice. Mice received either 0.01 mmol Fe-BBG/kg (0.56 μg Fe per g body weight), 0.1 mmol Fe-BBG/kg (5.6 μg Fe per g body weight), or placebo (saline vehicle) via tail vein injection and were euthanized either 5 min, 60 min or 100 min post-injection. Serum nonheme iron parameters were then quantified using the spectrophotometric ferrozine assay.
FIG. 9 compares serum iron, total iron binding capacibity (TIBC), and unbound iron binding capacity (UIBC), recorded in mice treated with placebo and in serum harvested either 5 min, 60 min, or 100 min after Fe-BBG injection. The percentage transferrin saturation (% TSAT) was calculated at the 60 min and 100 min time points, at which point Fe-BBG and the BBG ligand remaining after trans-chelation with apo-transferrin had diminished to levels that will not interfere with the spectrophotometric assay.

[2] = Labile iron in serum after i.v. injection (dihydrorhodamine 123 oxidation); type: in vivo, mouse
Protocol: These are the same serum samples as in FIG. 9. The assay was performed as described in Blood 2003, 102 (7), 2670-2677.
To quantify labile iron released by Fe-BBG after intravenous injection, male C57BL/6 mice received either 0.01 mmol Fe-BBG/kg (0.56 μg Fe per g body weight), 0.1 mmol Fe-BBG/kg (5.6 μg Fe per g body weight), or placebo (saline vehicle) via tail vein injection and were euthanized either 5 min, 60 min or 100 min post-injection. Blood serum was harvested and labile Fe in each sample quantified by spectrophotometrically monitoring the rate of dihydrorhodamine 123 oxidation under redox forcing conditions, as reported in Blood 2003, 102 (7), 2670-2677 and described below:
Quadruplicates of 20 μL serum were transferred to clear-bottom 96-well plates. To 2 of the wells was added 180 μL iron-free HEPES buffered saline (HBS) (preincubated at 37° C.) containing 40 μM ascorbate and 50 µM dihydrorhodamine 123 (DHR). […] The kinetics of fluorescence increase were followed at 37° C. in a Molecular Devices FlexStation 3 microplate reader with 485/538 nm excitation/emission filter pair, for 40 minutes, with readings every 2 minutes. The slopes (R) of DHR fluorescence intensity with time were calculated from measurements taken between 16 and 40 minutes and are given as FU·minute^−1 (fluorescence units per minute). […]

Tmprss6 knockout mice = assay: Tolerability after repeat dosing (clinical chemistry, liver qPCR); type: in vivo, mouse
Protocol: Tmprss6 knockout mice received 29 intraperitoneal injections each containing 25 μg Fe as Fe-BBG (1.3±0.18 μg Fe per gram body weight, N=5 mice, 2 male, 3 female) or containing saline (placebo, N=5 mice, 2 male, 3 female) over 15 days. The cumulative dose of Fe was 725 μg Fe (37±0.53 μg Fe per gram body weight). The mice were euthanized 120 min after the final injection. Blood was harvested for measurement of complete blood counts, and nonheme Fe parameters. Bone marrow and liver tissue were analyzed by qPCR for expression of genes related to erythropoietic activity, Fe exposure, oxidative stress, and inflammation, the data are tabulated in FIG. 15. Clinical chemistry was also recorded, see Example 16 below. FIG. 15 data are shown as mean±standard deviation. Statistical differences between groups were determined by two-tailed Student's t-test for normally distributed values or Mann-Whitney (/test for non-normally distributed values. Significant differences are indicated by *P<0.05, **P<0.01, ****P<0.0001.
FIG. 16 data are shown as mean±standard deviation. Statistical differences between groups were determined by two-tailed Student's t-test for normally distributed values or Mann-Whitney U test for non-normally distributed values. Significant differences are indicated by *P<0.05, **P<0.01, ***P<0.001, ****P<0.0001.

[3] = 0.56 or 5.6 μg Fe per g i.v., 5, 60, 100 min, vs placebo

O.O.O=C([O-])CC[C@H]1C(=O)[O][Fe]2[O]c3ccccc3CN1Cc1ccccc1[O]2 [Fe-BBG]
blood elimination half life (vena cava MR signal) ([1]; 0.14 mmol/kg injection, monoexponential fit): 5.5 ± 2.8 min | hepatobiliary excretion (liver, gallbladder, bowel enhancement) ([1]; MRI): partial hepatobiliary excretion | renal excretion (kidney enhancement) ([1]; MRI): rapid elimination through the kidneys; also recorded: rapid urinary excretion | serum iron (normal male C57BL/6 mice; [3]): rapidly raises | total iron binding capacity (TIBC) (normal male C57BL/6 mice; [3]): rapidly raises; also recorded: does not decrease | unbound iron binding capacity (UIBC) (normal male C57BL/6 mice; 0.56 or 5.6 μg Fe per g i.v., vs placebo): does not reduce UIBC significantly | percentage transferrin saturation (% TSAT) (normal male C57BL/6 mice; 60 and 100 min, vs placebo): elevates % TSAT significantly | total serum nonheme Fe relative to placebo treated mice (normal male C57BL/6 mice; 5 min after 5.6 μg Fe/g): 25 fold | labile iron release in vivo ([2]; 0.56 or 5.6 μg Fe per g, 5, 60, 100 min): does not contribute detectable quantities of labile Fe; also recorded: does not release labile iron in vivo | labile Fe concentration in serum ([2]; 5 min after injection of 5.6 μg Fe/g): < 0.2 µM | oxidative stress (Tmprss6 knockout mice; from Hmox1, Gclc, NqoI taken together): did not result in oxidative stress | Serum amyloid A1 (SaaI) expression (Tmprss6 knockout mice; qPCR, marker of inflammation, repeat dosing): unchanged | liver NAD (P) H quinone dehydrogenase 1 (NqoI) expression (Tmprss6 knockout mice; qPCR, repeat dosing): did not trigger upregulation | liver glutamate-cysteine ligase catalytic subunit (Gclc) expression (Tmprss6 knockout mice; qPCR, repeat dosing): did not trigger upregulation | liver heme oxygenase 1 (Hmox1) expression (Tmprss6 knockout mice; qPCR, repeat dosing): did not trigger upregulation | clinical chemistry parameters (Tmprss6 knockout mice; repeat dosing, vs placebo): did not generate significant differences
